Entries after “also recorded” stand apart in the source; their conditions may differ. No end group written: not given here.
Tested on: HIV-1 isolates IIIB (X4), BaL (R5), B703 (X4), NSI03 (R5) in PBMC
Experiment: Inhibition of HIV-1 replication in PBMC, HIV-1 p24 antigen-capture ELISA
Assay type: cell-based
Details: HIV-1 infected human PBMC in vitro, p24 at day 4; HNP4 compared with HNPs 1-3
Method: Inhibition of HIV-1 in vitro by α-defensins 1-3 was first reported by Nakashima et al, 1993 [11], which has been confirmed by several recent reports.
Cells infected with the HIV-1 virus were added to duplicate series of wells containing varying concentrations of test defensin in 200 ul complete culture medium, and fed after 48 hours with fresh defensin of appropriate quantities. Medium alone was used as the control. The level of HIV-1 replication was measured at day 4 after infection by HIV-1 p24 antigen-capture ELISA. Percent infection was determined as a function of HIV p24 released into the medium in sample wells versus in control wells.

With “HNP4: Human neutrophil α-defensin 4, 33 amino acid residues; amino acid residues 64-96 of defensin 4 (VCSCRLVFCRRTELRVGNCLIGGVSFTYCCTRV; ends and bridges not checked; cysteine pairing not given here; UniProt P12838 64-96, looked up, fragment)” the “Inhibition of HIV-1 (in words)” value was “significantly more effective inhibitor than HNPs 1-3; also recorded: significantly and unexpectedly stronger”.

Source: patent US20060172945A1, “Human neutrophil alpha-defensin 4 inhibition of HIV-1” (priority 2005, published 2006)
